Active and inactive are the calls of the source. The rule behind the calls is not given here.

This experiment deals with UPR adaptive arm reporter cells, luciferase luminescence. The experiment is described as follows: activators of adaptive UPR signalling, dose response, cell-based, luciferase luminescence (AID 489032).
In the case of `CCN(CC)c1ccc(C(=O)OCC(=O)Nc2cc3oc4ccccc4c3cc2OC)cc1`, the EC50 (commonly the concentration needed to bring the measured effect to its halfway point) was 25.8 µM (inactive). `N#C/C(=C\Nc1ccc2cn[nH]c2c1)c1nc(-c2ccc(Cl)cc2)cs1`: the half-maximal effective concentration (EC50) is 15.1 µM. Take `CCOC(=S)SCC(=O)Nc1nc(-c2ccc(Br)cc2)cs1`: the EC50 is > 80 µM (inactive). Turning to `COc1cc(OC)cc(C(=O)Nc2ccc3nc4n(c(=O)c3c2)CCCCC4)c1`, the EC50 is 31.9 µM (inactive). On to `CCN(CC)c1ccc(-c2nn3c(-c4ccccc4OC)nnc3s2)cc1`, for which the EC50 was > 80 µM (inactive).

Take `COc1ccc2[nH]c3c(c2c1)CCN1C(=O)C(CC(=O)NC/C=C(\C)CCC=C(C)C)C[C@H](C(=O)N2CCOCC2)[C@@]31CCC1CCCC1` (stereo partly drawn): the EC50 was > 80 µM (inactive). Under `CC1CCN(Cc2c(C(=O)N/N=C/c3ccc(C(F)(F)F)cc3)nnn2-c2nonc2N)CC1` stands > 80 µM (inactive); under `CCN(CC)S(=O)(=O)c1ccc2c(c1)C(=NO)c1cc(S(=O)(=O)N(CC)CC)ccc1-2`, 18.6 µM.

For `CCCCCCCCCn1c2c(c(=N)c3c1CCC3)CCCC2`, the EC50 was 25.6 µM (inactive). For the molecule `CN(C)C(=O)CCc1ccc2c3c([nH]c2c1)[C@]1(CCc2ccccc2)[C@@H](C(=O)N2CCCCC2)C[C@H](CC(=O)NCCC2=CCCCC2)C(=O)N1CC3`, the EC50 is 35.9 µM (inactive). With `Cc1cccc(NC(=O)c2nc[nH]c2C(=O)Nc2ccccc2[N+](=O)[O-])c1`, the EC50 is > 80 µM (inactive). On to `Cn1nc(C(F)(F)F)c(/C=N/OC(=O)c2ccccc2Cl)c1SCc1ccccc1Cl`, for which the EC50 is 22.2 µM (inactive). Regarding `Cc1nn(-c2ccccc2)c(C)c1/C=N/NC(=O)CSc1nc2ccccc2c(=O)n1-c1ccc(Br)cc1`, the EC50 is 35.7 µM (inactive). Under `OCCNc1nc(Nc2ccc(Br)cc2)nc2ccccc12` stands > 80 µM (inactive); under `CC(=O)c1cccc(N=Cc2c(O)c3ccccc3oc2=O)c1`, > 80 µM (inactive). Take `Cc1nn(Cc2c(Cl)cccc2Cl)c(C)c1NC(=O)c1sc2ccccc2c1Cl`: the EC50 is 29.8 µM (inactive). The value for `COc1ccccc1Nc1nnc(SCC(=O)NC(=O)Nc2ccc3c(c2)OCCO3)s1` was > 80 µM (inactive). Under `COc1ccc(-c2nn(C)c(=O)c3ccccc23)cc1NC(=O)Cn1nc(C)c2ccccc2c1=O` stands 28 µM (inactive); under `Nc1c(C(=O)Nc2ccc(S(=O)(=O)N3CCCC3)cc2)sc2nc3ccc(OC(F)(F)F)cc3cc12`, 12 µM. Under `Cc1ccc2nc(NC(=O)c3ccc(-c4nc5ccccc5s4)s3)sc2c1` stands > 80 µM (inactive); under `COc1ccc(C(CCNC(C)c2ccccc2)c2ccc(F)cc2)cc1` (stereo not drawn), > 80 µM (inactive); under `CCNC(=O)c1c(NC(=O)c2cc(-c3cc(C)ccc3O)n[nH]2)sc2c1CCCC2`, > 80 µM (inactive). Take `CCN(CC)CCn1c(SCC(=O)Nc2ccc(F)cc2)nc2c(sc3ccccc32)c1=O`: the EC50 is > 80 µM (inactive). Under `CCN=C1S/C(=C\c2cn(CC(=O)NCc3ccco3)c3ccccc23)C(=O)N1CC` stands > 80 µM (inactive); under `CC(C)CN=C(NS(=O)(=O)c1ccccc1)C(Cl)(Cl)Cl`, > 80 µM (inactive). Under `O=C(Nc1ccc(Cl)cc1)Nc1ccccc1Sc1ncc([N+](=O)[O-])s1` stands > 80 µM (inactive). For the molecule `O=C(NCCC1=CCCCC1)C(=O)NCC(c1ccco1)N1CCN(c2ccc(F)cc2)CC1` (stereo not drawn), the EC50 is > 80 µM (inactive). Turning to `CCOc1ccccc1N=Cc1c(O)c2ccccc2oc1=O`, the EC50 is 11.6 µM. On to `C/C(=N/NC(=O)c1ccc(Cl)s1)c1ccc(NC(=O)COc2ccc(Cl)cc2)cc1`, for which the EC50 is > 80 µM (inactive).

As to `COc1ccc(C2CC(c3c(-c4ccccc4)c4cc(Cl)ccc4[nH]c3=O)=NN2S(C)(=O)=O)cc1` (stereo not drawn), the EC50 is > 80 µM (inactive). Under `CCOC(=O)C1=C(O)/C(=C/c2cn(CC(=O)NCC3CCCO3)c3ccccc23)SC1=Nc1ccc(C)cc1` (stereo not drawn) stands > 80 µM (inactive). For the molecule `CCOC(=O)c1c(NC(=O)CSc2nnc3c(n2)[nH]c2ccc(F)cc23)sc(C(C)=O)c1C`, the EC50 was 21.8 µM (inactive).

With `COc1cc(C(=O)Nc2cc(-c3nc4cc(C)ccc4o3)ccc2C)cc(OC)c1OC`, the EC50 is > 80 µM (inactive). Under `Cc1cc(C)c(NC(=O)CSc2nc(COc3ccccc3)nc3ccccc23)c(C)c1` stands > 80 µM (inactive); under `CCc1ccc(-c2cc(C(F)(F)F)n3nc(C(=O)Nc4cnn(Cc5ccc(C)cc5)c4)cc3n2)s1`, 4.24 µM. The value for `N#Cc1ccccc1NC(=O)COc1c(Br)cc(Br)c2cccnc12` was > 80 µM (inactive).

`Oc1ccc(CN2CCC(Cc3ccccc3)CC2)c2cccnc12`: the EC50 was > 80 µM (inactive). As for `CCOC(=O)c1cc(-c2ccccc2)sc1NC(=O)c1ccc(OC)cc1`, the EC50 was > 80 µM (inactive). Consider `Cc1ccc(N2CCN(c3ccc(NCc4nc5ccccc5n4C)cc3)CC2)cc1`, for which the EC50 was > 80 µM (inactive).

Consider `Cc1ccc(Nc2nc(NCc3ccco3)c3ccccc3n2)cc1`, for which the concentration giving a half-maximal response (EC50) is 17.8 µM. The value for `CC1(C)C[C@H](O)[C@]2(CO)[C@H](O)C[C@]3(C)C(=CCC4[C@@]5(C)CC[C@H](O)C(C)(C)C5CC[C@]43C)[C@@H]2C1` (stereo partly drawn) was 18.1 µM. On to `COc1ccc2cc3c(N)nn(C(=O)C4CCC(C(C)(C)C)CC4)c3nc2c1` (stereo not drawn), for which the EC50 was > 80 µM (inactive).

As to `Brc1ccc(-c2ccc(/C=N/Nc3nncc(-c4ccccc4)n3)o2)cc1`, the EC50 was 77.6 µM (inactive). The value for `NS(=O)(=O)c1ccc(N=Cc2c(O)n(C3CCCCC3)c(=O)n(C3CCCCC3)c2=O)cc1` was > 80 µM (inactive). Under `c1ccc(Oc2c3ccccc3nc3ccccc23)cc1` stands > 80 µM (inactive). On to `COc1ccc(-c2c(-c3cc(OC)cc(OC)c3)n(C)c3ccc(-c4cnc(N)nc4)cc23)cc1`, for which the EC50 was 36.1 µM (inactive). Under `COc1ccc(N=Cc2c(O)c3ccccc3oc2=O)cc1` stands 12.2 µM. The value for `O=C(Nc1ccc(Br)cc1)c1cc(-c2ccncc2)nc2ccccc12` was 11.1 µM.

The values are drawn from PubChem BioAssay AID489032 (Sanford-Burnham Center for Chemical Genomics, 2010).
